The text below walks through data of publication PMC9409168, “Kinetic Characterization of Cerium and Gallium Ions as Inhibitors of Cysteine Cathepsins L, K, and S” (International Journal of Molecular Sciences, 2022).

Data set [1] deals with T1, cathepsin L (Homo sapiens, UniProt P07711).
T1 construct: made in house; host or cells: E. coli
Briefly: Kinetics of cathepsin L inhibition by metal ions, fluorogenic substrate Z-Leu-Arg-AMC. Type of data set: biochemical. The conditions noted are these: for Mechanism: specific velocity plot.

Data set [2] deals with T2, cathepsin K (Homo sapiens, UniProt P43235).
T2 construct: made in house; host or cells: E. coli
T2 sequence (P43235 115-329): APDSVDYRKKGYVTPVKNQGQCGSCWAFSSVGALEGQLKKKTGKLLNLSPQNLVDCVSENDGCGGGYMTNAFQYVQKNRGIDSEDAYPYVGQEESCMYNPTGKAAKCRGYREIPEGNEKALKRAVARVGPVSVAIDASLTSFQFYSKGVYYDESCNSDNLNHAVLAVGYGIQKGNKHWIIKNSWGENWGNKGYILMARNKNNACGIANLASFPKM
Briefly: Kinetics of cathepsin K inhibition by metal ions, fluorogenic substrate Z-Phe-Arg-AMC. It counts as biochemical. The conditions noted are these: for Mechanism: specific velocity plot / titration.

Data set [3] addresses T3, cathepsin S (Homo sapiens, UniProt P25774).
T3 construct: made in house; host or cells: E. coli
The data set can be described thus: Kinetics of cathepsin S inhibition by metal ions, fluorogenic substrate Z-Val-Val-Arg-AMC. It counts as biochemical. The conditions noted are these: for Mechanism: specific velocity plot / titration.

In data set [4] the target is T1, cathepsin L. The data set can be described thus: Degradation of insoluble bovine neck ligament elastin by cathepsin L. It counts as biochemical. The conditions noted are these: metal ions 0.5 mM. The procedure:
(§1) Degradation of insoluble elastin was performed and analyzed according to the protocol in ref. [51]. Briefly, reactions were performed using 200 µL samples, each containing 1 mg of insoluble bovine neck ligament elastin. The enzymes were added to a final concentration of 0.2 µM and the metal ions to a final concentration of 0.5 mM. Samples were incubated at 37 °C for 120 min on an Eppendorf Thermomixer with shaking at 1200 rpm, and the reactions were then stopped by the addition of trichloroacetic acid to a final concentration of 5% (w/V). Samples were cleared by centrifugation and 100 µL of the supernatant was mixed with 1400 µL of 0.2 M sodium borate buffer and 500 µL of a 0.15 mg/mL solution of fluorescamine in acetone. The fluorescence of the samples was measured at an excitation wavelength of λex = 390 nm and emission wavelength of λem = 480 nm. Blank samples without added enzyme were run in parallel and their fluorescence values were subtracted from the samples. Experiments were performed in three replicates of each sample and each experiment was repeated multiple times to assure reproducibility of the results.

Data set [5] relates to cell growth and metabolism. More on the design: method as in PMID 7929991. The conditions noted are these: cited from earlier work.
The target in data set [6] is T2, cathepsin K. The data set can be described thus: Degradation of insoluble bovine neck ligament elastin by cathepsin K. Type of data set: biochemical. The conditions noted are these: metal ions 0.5 mM. The protocol:
as §1

The target of data set [7] is T3, cathepsin S. Briefly: Degradation of insoluble bovine neck ligament elastin by cathepsin S. The conditions noted are these: metal ions 0.5 mM. It counts as biochemical. The procedure:
as §1

For the next data set, the target named is cathepsins L, K, and S. Briefly: Kinetics of inhibition, summary over all tested peptidases. It counts as biochemical, human. The conditions noted are these: range over all peptidases tested (cathepsins L, K, S); read-out: equilibrium dissociation constants (inhibition constants).
Where [8] appears, read: Z-Leu-Arg-AMC, 25 °C, 0.1 M sodium acetate buffer pH 5.5, read-out: KX.
The mark [9] stands for this setting: Z-Phe-Arg-AMC, 25 °C, 0.1 M sodium acetate buffer pH 5.5, read-out: KX.
[10] abbreviates: effect on catalytic rate, general modifier mechanism.
[11] abbreviates: effect on substrate affinity, general modifier mechanism.
Where [12] appears, read: Z-Val-Val-Arg-AMC, 25 °C, 0.1 M sodium acetate buffer pH 5.5, read-out: KX.

Like-named read-outs stand apart in the source and are kept apart here.

T3 sequence (P25774 115-331): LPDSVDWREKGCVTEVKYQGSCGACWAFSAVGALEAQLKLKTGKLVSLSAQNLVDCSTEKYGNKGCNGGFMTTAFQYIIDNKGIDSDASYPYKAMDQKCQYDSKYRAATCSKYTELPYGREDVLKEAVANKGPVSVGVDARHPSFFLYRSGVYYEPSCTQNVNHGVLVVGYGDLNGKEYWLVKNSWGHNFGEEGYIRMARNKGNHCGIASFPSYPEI
T1 sequence (P07711 114-333): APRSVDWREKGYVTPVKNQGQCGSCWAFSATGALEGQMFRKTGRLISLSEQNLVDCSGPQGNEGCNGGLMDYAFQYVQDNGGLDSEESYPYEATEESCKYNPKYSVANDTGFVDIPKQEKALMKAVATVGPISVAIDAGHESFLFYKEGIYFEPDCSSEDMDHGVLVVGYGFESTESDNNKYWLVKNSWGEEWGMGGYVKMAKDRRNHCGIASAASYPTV

Regarding `O=[N+]([O-])[O-].O=[N+]([O-])[O-].O=[N+]([O-])[O-].[Ga+3]` [Ga^3+, Ga(NO3)3], the Ki on cathepsin L [1] (setting [8]) is 0.6 ± 0.04 µM; at cathepsin L [1] (read-out: KX), 0.6 µM; on cathepsin K [2] (setting [9]), 4.1 ± 0.8 µM; on cathepsin K [2] (read-out: KX), about 4 µM; on cathepsin S [3] (setting [12]), 3.7 ± 0.6 µM; on cathepsin S [3] (read-out: KX), about 4 µM. The Mechanism entry at cathepsin L [1] is on record as “Linear specific”; on cathepsin K [2] it was “Hyperbolic mixed”; on cathepsin S [3] it was “Hyperbolic mixed”. The β at cathepsin K [2] (setting [10]) was 2.4 ± 1.4; at cathepsin S [3] (setting [10]) it was 3.3 ± 0.5. Also, the values for the α on cathepsin K [2] (setting [11]) and on cathepsin S [3] (setting [11]) were 11.5 ± 1.0 and 11.3 ± 1.0, respectively. Also, the “residual enzyme activity at saturation” value on cathepsin K [2] (synthetic substrate) and on cathepsin S [3] (synthetic substrate) was “about 20%” in each case. In addition, on cathepsin L [4], the “inhibition of elastin degradation, comparison in words” value is recorded as “most potent inhibitor”. In addition, in data set [5], the “toxic effects on cell growth and metabolism” value is “no significant toxic effects”.

As to `[Pb+2]` [Pb^2+, reference compound], the figures for the Ki on cathepsin L [1] (setting [8]), at cathepsin K [2] (setting [9]) and on cathepsin S [3] (setting [12]) were 26 ± 12 µM, 135 ± 13 µM and 50 ± 5 µM, respectively. The Mechanism result at cathepsin L [1], on cathepsin K [2] and on cathepsin S [3] was “Linear specific” each time.

Take `[Zn+2]` [Zn^2+]: the Ki at cathepsin L [1] (setting [8]) was 7.5 ± 0.9 µM; on cathepsin K [2] (setting [9]) it was 7.3 ± 0.3 µM; at cathepsin S [3] (setting [12]), 2.9 ± 0.5 µM; on cathepsins L, K, and S, about 1 µM. The Mechanism result on cathepsin L [1], on cathepsin K [2] and at cathepsin S [3] was “Linear specific” throughout. The “inhibition of elastin degradation, comparison in words” value on cathepsin K [6] and against cathepsin S [7] was “strongest inhibitor” throughout.
